Test results reported in US7601847B2, “Preparation and purification of 4-(indazol-3-yl)phenols” (Wyeth, priority 2004, dated 2009).
Converted amounts (≈) assume the structure as drawn.

Assay: relative solubility in a mixture of methanol and water
Type: physicochemical
Conditions: mixture of methanol and water (57:43 v/v); for solubility: methanol/water mixture (57:43 v/v), aqueous with cosolvent or surfactant or cyclodextrin

**Q.** With `C=CCn1nc(-c2ccc(O)cc2O)c2cccc(C(F)(F)F)c21` [I, 4-[1-allyl-7-(trifluoromethyl)-1H-indazol-3-yl]benzene-1,3-diol] as the compound, how does the solubility read?
**A.** Its solubility is 6 mg/mL (≈ 17.9 mM).

**Q.** What does the source list for `C=CCn1nc2c(C(F)(F)F)cccc2c1-c1ccc(O)cc1O` [VI]?
**A.** solubility: 140 mg/mL (≈ 419 mM); difference in solubility in favor of the impurity (VI vs compound I): 20 ×
